Experimental data reported in paper PMC9848300, “Discovery of novel enasidenib analogues targeting inhibition of mutant isocitrate dehydrogenase 2 as antileukaemic agents” (Journal of Enzyme Inhibition and Medicinal Chemistry, 2023).

How the values were obtained:
SF-268 = assay: NCI 60 antitumor screening (single dose); type: cell-based; settings: Homo sapiens; SF-268 (CNS cancer), single dose 10 μM; read-out: Growth inhibition percentage (GI %)
How it was run: (§1)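 Values are GI% (100 minus percent growth, G%) from the NCI 60 cell line screen at one 10 μM concentration. Tests were done in triplicate under NCI protocol, with a mean across the whole panel reported as well.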

MCF7 = assay: NCI 60 antitumor screening (single dose); type: cell-based; settings: Homo sapiens; MCF7 (breast cancer), single dose 10 μM; read-out: Growth inhibition percentage (GI %)
How it was run: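 Assessment used the first tier of the NCI 60 screen, one dose of 10 μM per compound. Triplicate experiments gave percent growth of treated cells. Inhibition was then derived as 100 − G%.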

MDA-MB-435 = assay: NCI 60 antitumor screening (single dose / five doses); type: cell-based; settings: Homo sapiens; MDA-MB-435 (melanoma), single dose 10 μM; read-out: Growth inhibition percentage (GI %)
UO-31 = assay: as above; type: cell-based; settings: Homo sapiens; UO-31 (renal cancer), single dose 10 μM; read-out: Growth inhibition percentage (GI %)
HCT-15 = assay: as above; type: cell-based; settings: Homo sapiens; HCT-15 (colon cancer), single dose 10 μM; read-out: Growth inhibition percentage (GI %)
HCT-116 = assay: as above; type: cell-based; settings: Homo sapiens; HCT-116 (colon cancer), single dose 10 μM; read-out: Growth inhibition percentage (GI %)
HT29 = assay: as above; type: cell-based, human; settings: Homo sapiens, HT-29; HT29 (colon cancer), single dose 10 μM; read-out: Growth inhibition percentage (GI %)
[1] = system: 60 human subpanel cancer cell lines; assay: NCI 60 antitumor screening, mean over the panel (single dose); type: cell-based; settings: mean over 60 cancer cell lines, single dose 10 μM
How it was run: as §1

COLO 205 = assay: NCI 60 antitumor screening (single dose / five doses); type: cell-based; settings: Homo sapiens; COLO 205 (colon cancer), single dose 10 μM; read-out: Growth inhibition percentage (GI %)
K-562 = assay: as above; type: cell-based; settings: Homo sapiens, K562; K-562 (leukaemia), single dose 10 μM; read-out: Growth inhibition percentage (GI %)
BT-549 = assay: as above; type: cell-based; settings: Homo sapiens; BT-549 (breast cancer), single dose 10 μM; read-out: Growth inhibition percentage (GI %)
LOX IMVI = assay: as above; type: cell-based; settings: Homo sapiens; LOX IMVI (melanoma), single dose 10 μM; read-out: Growth inhibition percentage (GI %)
DU-145 = assay: as above; type: cell-based; settings: Homo sapiens; DU-145 (prostate cancer), single dose 10 μM; read-out: Growth inhibition percentage (GI %)
SN 12C = assay: as above; type: cell-based; settings: Homo sapiens, SN12C; SN 12C (renal cancer), single dose 10 μM; read-out: Growth inhibition percentage (GI %)
SK-MEL-28 = assay: as above; type: cell-based; settings: Homo sapiens; SK-MEL-28 (melanoma), single dose 10 μM; read-out: Growth inhibition percentage (GI %)
UACC-257 = assay: as above; type: cell-based; settings: Homo sapiens; UACC-257 (melanoma), single dose 10 μM; read-out: Growth inhibition percentage (GI %)
IGROV1 = assay: as above; type: cell-based; settings: Homo sapiens, IGROV-1; IGROV1 (ovarian cancer), single dose 10 μM; read-out: Growth inhibition percentage (GI %)
786-0 = assay: as above; type: cell-based; settings: Homo sapiens, 786-0, 786-0 (renal cancer), single dose 10 μM; read-out: Growth inhibition percentage (GI %)
UACC-62 = assay: as above; type: cell-based; settings: Homo sapiens; UACC-62 (melanoma), single dose 10 μM; read-out: Growth inhibition percentage (GI %)
SNB-75 = assay: as above; type: cell-based; settings: Homo sapiens; SNB-75 (CNS cancer), single dose 10 μM; read-out: Growth inhibition percentage (GI %)
T-47D = assay: as above; type: cell-based; settings: Homo sapiens, T47D; T-47D (breast cancer), single dose 10 μM; read-out: Growth inhibition percentage (GI %)
MDA-MB-231/ATCC = assay: as above; type: cell-based; settings: Homo sapiens; MDA-MB-231/ATCC (breast cancer), single dose 10 μM; read-out: Growth inhibition percentage (GI %)
SF-539 = assay: as above; type: cell-based; settings: Homo sapiens; SF-539 (CNS cancer), single dose 10 μM; read-out: Growth inhibition percentage (GI %)
RXF 393 = assay: as above; type: cell-based; settings: Homo sapiens; RXF 393 (renal cancer), single dose 10 μM; read-out: Growth inhibition percentage (GI %)
SK-MEL-2 = assay: as above; type: cell-based; settings: Homo sapiens; SK-MEL-2 (melanoma), single dose 10 μM; read-out: Growth inhibition percentage (GI %)
ACHN = assay: as above; type: cell-based; settings: Homo sapiens; ACHN (renal cancer), single dose 10 μM; read-out: Growth inhibition percentage (GI %)
HOP-92 = assay: as above; type: cell-based; settings: Homo sapiens; HOP-92 (non-small cell lung cancer), single dose 10 μM; read-out: Growth inhibition percentage (GI %)
A498 = assay: as above; type: cell-based; settings: Homo sapiens; A498 (renal cancer), single dose 10 μM; read-out: Growth inhibition percentage (GI %)
HL-60(TB) = assay: as above; type: cell-based; settings: Homo sapiens; HL-60(TB) (leukaemia), single dose 10 μM; read-out: Growth inhibition percentage (GI %)

SMILES	inhibition at 10 µM (SF-268)	inhibition at 10 µM (MCF7)	inhibition at 10 µM (MDA-MB-435)	inhibition at 10 µM (UO-31)	inhibition at 10 µM (HCT-15)	inhibition at 10 µM (HCT-116)	inhibition at 10 µM (HT29)	Mean GI % [1]	inhibition at 10 µM (COLO 205)	inhibition at 10 µM (K-562)	inhibition at 10 µM (BT-549)	inhibition at 10 µM (LOX IMVI)	inhibition at 10 µM (DU-145)	inhibition at 10 µM (SN 12C)	inhibition at 10 µM (SK-MEL-28)	inhibition at 10 µM (UACC-257)	inhibition at 10 µM (IGROV1)	inhibition at 10 µM (786-0)	inhibition at 10 µM (UACC-62)	inhibition at 10 µM (SNB-75)	other results
Oc1ccc(/C=N/Nc2nc(N/N=C/c3ccc(O)c(O)c3)nc(N3CCOCC3)n2)cc1O [compound 6j, 4-[(1e)-(2-{4-[(E)-2-[(3,4-Dihydroxyphenyl)methylidene]hydrazin-1-yl]-6-(morpholin-4-yl)-1,3,5-triazin-2-yl}hydrazin-1-ylidene)methyl]benzene-1,2-diol]	-2.53%	5.79%	-3.12%	15.4%	-2.93%	-6.01%	-12%	-2.12%	-7.11%	-5.6%	-9.12%	-5.85%	-5.37%	0.16%	-2.58%	-3.12%	-6.08%	-3.75%	2.19%	-1.54%	inhibition at 10 µM (T-47D): 7.67%; inhibition at 10 µM (MDA-MB-231/ATCC): 1.27%; inhibition at 10 µM (SF-539): -3.18%; inhibition at 10 µM (RXF 393): -20.4%; inhibition at 10 µM (SK-MEL-2): 3.04%; inhibition at 10 µM (ACHN): -1.32%; inhibition at 10 µM (HOP-92): -7.35%; inhibition at 10 µM (A498): 2.87%; inhibition at 10 µM (HL-60(TB)): 0.38%
Fc1cccc(Cl)c1/C=N/Nc1nc(N/N=C/c2c(F)cccc2Cl)nc(N2CCOCC2)n1 [compound 6l, 2,4-Bis[(E)-2-[(2-Chloro-6-fluorophenyl)methylidene]hydrazin-1-yl]-6-(morpholin-4-yl)-1,3,5-triazine]	11.2%	29%	19.4%	33.5%	22.1%	16.4%	30.6%	19.00%	29.6%	43%	-1.45%	5.3%	4.76%	15.3%	10%	17%	41.4%	3.32%	19.8%	9.55%	inhibition at 10 µM (T-47D): 29.5%; inhibition at 10 µM (MDA-MB-231/ATCC): 10.7%; inhibition at 10 µM (SF-539): 7.53%; inhibition at 10 µM (RXF 393): 17.8%; inhibition at 10 µM (SK-MEL-2): 17.1%; inhibition at 10 µM (ACHN): 7.67%; inhibition at 10 µM (HOP-92): 27%; inhibition at 10 µM (A498): 26.9%; inhibition at 10 µM (HL-60(TB)): 26.1%
